In one experiment the target is T1, human TGR5 (h-TGR5) (Homo sapiens, UniProt Q8TDU6).
T1 construct: expressed in transfected cells
T1 sequence (Q8TDU6 1-330): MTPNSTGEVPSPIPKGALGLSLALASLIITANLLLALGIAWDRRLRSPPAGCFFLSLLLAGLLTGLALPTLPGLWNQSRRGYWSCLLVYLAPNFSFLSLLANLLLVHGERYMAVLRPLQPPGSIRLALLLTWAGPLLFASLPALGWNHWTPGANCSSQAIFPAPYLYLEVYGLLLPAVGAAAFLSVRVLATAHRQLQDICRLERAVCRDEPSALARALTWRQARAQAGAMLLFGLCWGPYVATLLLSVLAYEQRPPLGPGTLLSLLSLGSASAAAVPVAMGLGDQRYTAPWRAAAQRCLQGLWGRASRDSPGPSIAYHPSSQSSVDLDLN
The experiment can be described thus: TGR5/CRE-Luciferiase Assay (HEK 293 hTGR5/CRE-Luc cells). In kind it is cell-based. In a few lines: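 HEK293 cells stably carrying hTGR5 and a CRE-luciferase reporter were exposed to serially diluted compounds (diluted in DMEM with 5% DMSO) for 6 h. Cells were then lysed in luciferase buffer, luminescence was read, and EC50 values were derived from dose-response curves.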

The next experiment addresses T2, h-TGR5 (Homo sapiens, UniProt Q8TDU6).
T2 construct: expressed in transfected cells
T2 sequence (Q8TDU6 1-330): T1 sequence (Q8TDU6 1-330)
As to the kind of experiment: TGR5 cAMP Assay using Cisbio cAMP Dynamic2 htrf kit (hTGR5CRE-luc HEK 293 cells). In kind it is cell-based. The gist of the method:
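[…], 4000 hTGR5CRE-luc HEK 293 cells per well, with 0.5 mM IBMX and d2-cAMP, were incubated 30 min at room temperature with compounds in 8-point half-log series, in quadruplicate.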

The mark [1] stands for this setting: h-TGR5 CRE-Luc EC50, Table 1, read-out: CRE-Luc (EC50).
Where [2] appears, read: h-TGR5 cAMP EC50, Table 1, read-out: cAMP (EC50).

Like-named read-outs stand apart in the source and are kept apart here. Where only a bound is given, the exact number is not on record here.

For orientation: EC50 means the midpoint of the concentration-response curve. `COc1cc(C(C)(C)c2cnc(SCc3ccc(S(=O)(=O)NC(=O)N4CCCC4)cc3Cl)n2-c2ccc(F)cc2)ccc1Cl` [N-{[3-chloro-4-({[5-{1-[4-chloro-3-(methyloxy)phenyl]-1-methylethyl}-1-(4-fluorophenyl)-1H-imidazol-2-yl]thio}methyl)phenyl]sulfonyl}pyrrolidine-1-carboxamide]: the EC50 on human TGR5 (h-TGR5) (setting [1]) was 100 to 1000 nM; at h-TGR5 (setting [2]) it was less than 100 nM.
As to `COc1cc(C(C)(C)c2cnc(SCc3c(F)cc(C(=O)NCCCC(=O)O)cc3Cl)n2-c2ccc(F)cc2)ccc1Cl` [4-({[3-chloro-4-({[5-{1-[4-chloro-3-(methyloxy)phenyl]-1-methylethyl}-1-(4-fluorophenyl)-1H-imidazol-2-yl]thio}methyl)-5-fluorophenyl]carbonyl}amino)butanoic acid], the EC50 on human TGR5 (h-TGR5) (setting [1]) and at h-TGR5 (setting [2]) was less than 100 nM in each case.
In the case of `CC(C)(c1ccc(Cl)c(Cl)c1)c1cnc(SCc2ccc(-c3nnn[nH]3)cc2F)n1-c1ccc(F)cc1` [5-{4-[({5-[1-(3,4-dichlorophenyl)-1-methylethyl]-1-(4-fluorophenyl)-1H-imidazol-2-yl}thio)methyl]-3-fluorophenyl}-1H-tetrazole], the EC50 on human TGR5 (h-TGR5) (setting [1]) and on h-TGR5 (setting [2]) was 100 to 1000 nM throughout.
Take `CC(C)(c1ccc(Cl)c(Cl)c1)c1cnc(SCc2c(F)cc(C(=O)NCCS(=O)(=O)O)cc2F)n1-c1ccc(F)c(Cl)c1` [2-[({4-[({1-(3-chloro-4-fluorophenyl)-5-[1-(3,4-dichlorophenyl)-1-methylethyl]-1H-imidazol-2-yl}thio)methyl]-3,5-difluorophenyl}carbonyl)amino]ethanesulfonic acid]: the EC50 on human TGR5 (h-TGR5) (setting [1]) and on h-TGR5 (setting [2]) was less than 100 nM each time.
With `CC(C)(c1ccc(F)c(F)c1)c1cnc(SCc2ccc(S(=O)(=O)NC(=O)NN3CCCC3)cc2Cl)n1-c1ccc(F)cc1F` [3-chloro-4-[({1-(2,4-difluorophenyl)-5-[1-(3,4-difluorophenyl)-1-methylethyl]-1H-imidazol-2-yl}thio)methyl]-N-[(pyrrolidin-1-ylamino)carbonyl]benzenesulfonamide], the figures for the EC50 at human TGR5 (h-TGR5) (setting [1]) and at h-TGR5 (setting [2]) were 100 to 1000 nM and 1000 to 10000 nM, respectively.
The like results for `COc1cc(-n2c(C(C)(C)c3ccc4onc(N)c4c3)cnc2SCc2c(F)cc(C(=O)NC(CCCNC(=N)N)C(=O)O)cc2Cl)ccc1F` [N-2-({4-[({5-[1-(3-amino-1,2-benzisoxazol-5-yl)-1-methylethyl]-1-[4-fluoro-3-(methyloxy)phenyl]-1H-imidazol-2-yl}thio)methyl]-3-chloro-5-fluorophenyl}carbonyl]-D-arginine] were, in that order, less than 100 nM and less than 100 nM.
Consider `COc1cc(C(C)(C)c2cnc(S(=O)(=O)CC3CCN(S(C)(=O)=O)CC3)n2-c2ccc(F)cc2)ccc1Cl` [4-({[5-{1-[4-chloro-3-(methyloxy)phenyl]-1-methylethyl}-1-(4-fluorophenyl)-1H-imidazol-2-yl]sulfonyl}methyl)-1-(methylsulfonyl)piperidine], for which the EC50 at human TGR5 (h-TGR5) (setting [1]) and at h-TGR5 (setting [2]) was 100 to 1000 nM in each case.
As to `CC(C)(c1ccc(Cl)c(S(N)(=O)=O)c1)c1cnc(SCc2c(F)cc(C(=O)O)cc2Cl)n1-c1ccc(F)cc1` [4-({[5-{1-[3-(aminosulfonyl)-4-chlorophenyl]-1-methylethyl}-1-(4-fluorophenyl)-1H-imidazol-2-yl]thio}methyl)-3-chloro-5-fluorobenzoic acid], the EC50 at human TGR5 (h-TGR5) (setting [1]) and on h-TGR5 (setting [2]) was 100 to 1000 nM throughout.
On to `CC(C)(c1ccc(Cl)c(Cl)c1)c1cnc(SCc2c(F)cccc2F)n1-c1ccc(F)cc1` [5-[1-(3,4-dichlorophenyl)-1-methylethyl]-2-{[(2,6-difluorophenyl)methyl]thio}-1-(4-fluorophenyl)-1H-imidazole], for which the EC50 is less than 100 nM at human TGR5 (h-TGR5) (setting [1]) and 100 to 1000 nM on h-TGR5 (setting [2]).
Consider `CC(C)(c1ccc(Cl)c(Cl)c1)c1nnc(SCc2c(F)cc(C(=O)O)cc2F)n1-c1ccc(F)cc1` [Example 48], for which the EC50 lay in the range of 100 to 1000 nM at human TGR5 (h-TGR5) (HEK 293 hTGR5/CRE-Luc cells, 6 hours incubation, luciferase activity, Table 2, read-out: h-TGR5CRE-Luc EC50 (CRE-Luc)) and 100 to 1000 nM at h-TGR5 (hTGR5CRE-luc HEK 293 cells, htrf cAMP, Table 2, read-out: h-TGR5 cAMP EC50 (cAMP)).
Turning to `CC(C)(c1ccc(Cl)c(Cl)c1)c1cnc(SCc2ccc(S(=O)(=O)NC(=O)NN3CCCC3)cc2Cl)n1-c1ccc(F)cn1` [3-chloro-4-[({5-[1-(3,4-dichlorophenyl)-1-methylethyl]-1-(5-fluoropyridin-2-yl)-1H-imidazol-2-yl}thio)methyl]-N-[(pyrrolidin-1-ylamino)carbonyl]benzenesulfonamide], the EC50 at human TGR5 (h-TGR5) (setting [1]) and at h-TGR5 (setting [2]) was 100 to 1000 nM throughout.
Regarding `CC(C)(c1ccc(Cl)c(Cl)c1)c1cnc(SCC2CCN(S(C)(=O)=O)CC2)n1-c1ccc(F)cc1` [4-[({5-[1-(3,4-dichlorophenyl)-1-methylethyl]-1-(4-fluorophenyl)-1H-imidazol-2-yl}thio)methyl]-1-(methylsulfonyl)piperidine], the EC50 at human TGR5 (h-TGR5) (setting [1]) is less than 100 nM; at h-TGR5 (setting [2]), 100 to 1000 nM.
As for `CC(C)(c1ccc(Cl)cc1F)c1cnc(SCc2c(F)cccc2Cl)n1-c1ccc(F)cc1` [5-[1-(4-chloro-2-fluorophenyl)-1-methylethyl]-2-{[(2-chloro-6-fluorophenyl)methyl]thio}-1-(4-fluorophenyl)-1H-imidazole], the EC50 on human TGR5 (h-TGR5) (setting [1]) and on h-TGR5 (setting [2]) was 100 to 1000 nM each time.
As to `COc1cc(-n2c(C(C)(C)c3cccc(S(C)(=O)=O)c3)cnc2SCc2c(F)cc(C(=O)O)cc2F)ccc1F` [3,5-difluoro-4-{[(1-[4-fluoro-3-(methyloxy)phenyl]-5-{1-methyl-1-[3-(methylsulfonyl)phenyl]ethyl}-1H-imidazol-2-yl)thio]methyl}benzoic acid], the EC50 on human TGR5 (h-TGR5) (setting [1]) and at h-TGR5 (setting [2]) was 100 to 1000 nM in each case.
With `CC(C)NC(=O)NS(=O)(=O)c1cc(CSc2ncc(C(C)(C)c3ccc(Cl)c(Cl)c3)n2-c2ccc(F)cc2)ccc1Cl` [2-chloro-5-[({5-[1-(3,4-dichlorophenyl)-1-methylethyl]-1-(4-fluorophenyl)-1H-imidazol-2-yl}thio)methyl]-N-{[(1-methylethyl)amino]carbonyl}benzenesulfonamide], the concentration giving a half-maximal response (EC50) on human TGR5 (h-TGR5) (setting [1]) and on h-TGR5 (setting [2]) was 100 to 1000 nM in each case.
In the case of `COc1cc(C(C)(C)c2cnc(NCc3ccc(Cl)cc3F)n2-c2ccc(F)cc2)ccc1Cl` [N-[(4-chloro-2-fluorophenyl)methyl]-5-{1-[4-chloro-3-(methyloxy)phenyl]-1-methylethyl}-1-(4-fluorophenyl)-1H-imidazol-2-amine], the EC50 at human TGR5 (h-TGR5) (setting [1]) and on h-TGR5 (setting [2]) was 1000 to 10000 nM in each case.
In the case of `CC(C)(c1ccc(Cl)c(Cl)c1)c1cnc(SCc2c(F)cccc2Cl)n1-c1ccc(F)cc1F` [2-{[(2-chloro-6-fluorophenyl)methyl]thio}-5-[1-(3,4-dichlorophenyl)-1-methylethyl]-1-(2,4-difluorophenyl)-1H-imidazole], the EC50 at human TGR5 (h-TGR5) (setting [1]) and on h-TGR5 (setting [2]) was 100 to 1000 nM in each case.
Turning to `COc1ccc(C2CCCCN2S(=O)(=O)c2ncc(C(C)(C)c3ccc(Cl)c(Cl)c3)n2-c2ccc(F)cc2)cn1` (centres unmarked) [5-[1-({5-[1-(3,4-dichlorophenyl)-1-methylethyl]-1-(4-fluorophenyl)-1H-imidazol-2-yl}sulfonyl)piperidin-2-yl]-2-(methyloxy)pyridine], the EC50 on human TGR5 (h-TGR5) (setting [1]) and on h-TGR5 (setting [2]) was 100 to 1000 nM throughout.
`COc1cc(C(C)(C)c2cnc(SCc3c(F)cc(C(=O)NCCS(=O)(=O)O)cc3Cl)n2-c2ccc(F)cc2)ccc1Cl` [2-({[3-chloro-4-({[5-{1-[4-chloro-3-(methyloxy)phenyl]-1-methylethyl}-1-(4-fluorophenyl)-1H-imidazol-2-yl]thio}methyl)-5-fluorophenyl]carbonyl}amino)ethanesulfonic acid]: the EC50 on human TGR5 (h-TGR5) (setting [1]) and on h-TGR5 (setting [2]) was less than 100 nM each time.
For the compound `COc1cc(C(C)(C)c2cnc(SCc3ccc(C(=O)NCCC(=O)O)cc3F)n2-c2ccc(F)cc2)ccc1Cl` [N-{[4-({[5-{1-[4-chloro-3-(methyloxy)phenyl]-1-methylethyl}-1-(4-fluorophenyl)-1H-imidazol-2-yl]thio}methyl)-3-fluorophenyl]carbonyl}-beta-alanine], the EC50 on human TGR5 (h-TGR5) (setting [1]) and on h-TGR5 (setting [2]) was less than 100 nM in each case.
Consider `COc1cc(-n2c(C(C)(C)c3ccc(S(N)(=O)=O)c(Cl)c3)cnc2SCc2c(F)cc(S(=O)(=O)NC(=O)NN3CCOCC3)cc2F)ccc1F` [4-{[(5-{1-[4-(aminosulfonyl)-3-chlorophenyl]-1-methylethyl}-1-[4-fluoro-3-(methyloxy)phenyl]-1H-imidazol-2-yl)thio]methyl}-3,5-difluoro-N-[(morpholin-4-ylamino)carbonyl]benzenesulfonamide], for which the EC50 on human TGR5 (h-TGR5) (setting [1]) and at h-TGR5 (setting [2]) was less than 100 nM each time.
Regarding `CCOC(=O)NS(=O)(=O)c1ccc(CSc2ncc(C(C)(C)c3ccc(Cl)c(OC)c3)n2-c2ccc(F)cc2)c(Cl)c1` [ethyl {[3-chloro-4-({[5-{1-[4-chloro-3-(methyloxy)phenyl]-1-methylethyl}-1-(4-fluorophenyl)-1H-imidazol-2-yl]thio}methyl)phenyl]sulfonyl}carbamate], the EC50 on human TGR5 (h-TGR5) (setting [1]) and at h-TGR5 (setting [2]) was less than 100 nM throughout.

The values above are taken from patent US8785488B2 (Exelixis Patent Company LLC, priority 2009, dated 2014).
